{"source": "patent US10577353B2", "about": "“5-(n-[6,5]-fused bicyclic aryl tetrahydroisoquinolin-6-yl) pyridin-3-yl acetic acid derivatives as inhibitors of human immunodeficiency virus replication” (priority 2015, dated 2020)", "data": [{"tested_on": "recombinant NL-RLuc virus (NL4-3 derived HIV)", "experiment": "Inhibition of HIV replication (NL-RLuc virus in MT-2 cells, luciferase readout)", "format": "cell-based", "details": "Human immunodeficiency virus 1, NL43, MT2, 120 h", "source_text": "Inhibition of HIV Replication:\nA recombinant NL-RLuc proviral clone was constructed in which a section of the nef gene from NL4-3 was replaced with the Renilla Luciferase gene. This virus is fully infectious and can undergo multiple cycles of replication in cell culture. In addition, the luciferous reporter provides a simple and easy method for quantitating the extent of virus growth and consequently, the antiviral activity of test compounds. The plasmid pNLRLuc contains the proviral NL-Rluc DNA cloned into pUC 18 at the PvuII site. The NL-RLuc virus was prepared by transfection of 293T cells with the plasmid pNLRLuc. Transfections were performed using the LipofectAMINE PLUS kit from Invitrogen (Carlsbad, Calif.) according to the manufacturer and the virus generated was titered in MT-2 cells. For susceptibility analyses, the titrated virus was used to infect MT-2 cells in the presence of compound, and after 5 days of incubation, cells were processed and quantitated for virus growth by the amount of expressed luciferase. Assay media was RPMI 1640 supplemented with 10% heat inactivated fetal bovine serum (FBS), 100 units/ml penicillin G/100 units/ml streptomycin, 10 mM HEPES buffer pH 7.55 and 2 mM L-glutamine. The results from at least 2 experiments were used to calculate the EC50 values. Luciferase was quantitated using the Dual Luciferase kit from Promega (Madison, Wis.). Susceptibility of viruses to compounds was determined by incubation in the presence of serial dilutions of the compound. The 50% effective concentration (EC50) was calculated by using the exponential form of the median effect equation where (Fa)=1/[1+(ED50/drug conc.)^m] (Johnson V A, Byington R T. Infectivity Assay. In Techniques in HIV Research. ed. Aldovini A, Walker B D. 71-76. New York: Stockton Press. 1990).", "units": {"EC50": "nM"}, "values": [{"smiles": "Cc1ccc2sc(N3CCc4cc(-c5c(C)nc(C)c([C@H](OC(C)(C)C)C(=O)O)c5N5CCC(C)(C)CC5)ccc4C3)nc2c1", "note": "[Compound 6, (S)-2-(tert-butoxy)-2-(4-(4,4-dimethylpiperidin-1-yl)-2,6-dimethyl-5-(2-(5-methylbenzo[d]thiazol-2-yl)-1,2,3,4-tetrahydroisoquinolin-6-yl)pyridin-3-yl)acetic acid]", "EC50": 22}, {"smiles": "COc1nc(N2CCc3cc(-c4c(C)nc(C)c([C@H](OC(C)(C)C)C(=O)O)c4N4CCC(C)(C)CC4)ccc3C2)c2cc[nH]c2n1", "note": "[Compound 27, (S)-2-(tert-butoxy)-2-(4-(4,4-dimethylpiperidin-1-yl)-5-(2-(2-methoxy-7H-pyrrolo[2,3-d]pyrimidin-4-yl)-1,2,3,4-tetrahydroisoquinolin-6-yl)-2,6-dimethylpyridin-3-yl)acetic acid]", "EC50": 2}, {"smiles": "Cc1nc(N2CCc3cc(-c4c(C)nc(C)c([C@H](OC(C)(C)C)C(=O)O)c4N4CCC(C)(C)CC4)ccc3C2)c2cnn(C)c2n1", "note": "[Compound 19, (S)-2-(tert-butoxy)-2-(5-(2-(1,6-dimethyl-1H-pyrazolo[3,4-d]pyrimidin-4-yl)-1,2,3,4-tetrahydroisoquinolin-6-yl)-4-(4,4-dimethylpiperidin-1-yl)-2,6-dimethylpyridin-3-yl)acetic acid]", "EC50": 1}, {"smiles": "Cc1ccc2nc(N3CCc4cc(-c5c(C)nc(C)c([C@H](OC(C)(C)C)C(=O)O)c5N5CCC(C)(C)CC5)ccc4C3)sc2c1", "note": "[Compound 9, (S)-2-(tert-butoxy)-2-(4-(4,4-dimethylpiperidin-1-yl)-2,6-dimethyl-5-(2-(6-methylbenzo[d]thiazol-2-yl)-1,2,3,4-tetrahydroisoquinolin-6-yl)pyridin-3-yl)acetic acid]", "EC50": 8}, {"smiles": "Cc1nc(C)c([C@H](OC(C)(C)C)C(=O)O)c(N2CCC(C)(C)CC2)c1-c1ccc2c(c1)CCN(c1nc3ccccc3s1)C2", "note": "[Compound 13, (S)-2-(5-(2-(benzo[d]thiazol-2-yl)-1,2,3,4-tetrahydroisoquinolin-6-yl)-4-(4,4-dimethylpiperidin-1-yl)-2,6-dimethylpyridin-3-yl)-2-(tert-butoxy)acetic acid]", "EC50": 7}, {"smiles": "Cc1nc(C)c([C@H](OC(C)(C)C)C(=O)O)c(N2CCC(C)(C)CC2)c1-c1ccc2c(c1)CCN(c1noc3ccccc13)C2", "note": "[Compound 18, (S)-2-(5-(2-(benzo[d]isoxazol-3-yl)-1,2,3,4-tetrahydroisoquinolin-6-yl)-4-(4,4-dimethylpiperidin-1-yl)-2,6-dimethylpyridin-3-yl)-2-(tert-butoxy)acetic acid]", "EC50": 5}, {"smiles": "Cc1nc(C)c([C@H](OC(C)(C)C)C(=O)O)c(N2CCC(C)(C)CC2)c1-c1ccc2c(c1)CCN(c1nc3ncccc3s1)C2", "note": "[Compound 10, (S)-2-(tert-butoxy)-2-(4-(4,4-dimethylpiperidin-1-yl)-2,6-dimethyl-5-(2-(thiazolo[4,5-b]pyridin-2-yl)-1,2,3,4-tetrahydroisoquinolin-6-yl)pyridin-3-yl)acetic acid]", "EC50": 2}, {"smiles": "Cc1nc(C)c([C@H](OC(C)(C)C)C(=O)O)c(N2CCC(C)(C)CC2)c1-c1ccc2c(c1)CCN(c1ncnc3c1cnn3C)C2", "note": "[Compound 16, (S)-2-(tert-butoxy)-2-(4-(4,4-dimethylpiperidin-1-yl)-2,6-dimethyl-5-(2-(1-methyl-1H-pyrazolo[3,4-d]pyrimidin-4-yl)-1,2,3,4-tetrahydroisoquinolin-6-yl)pyridin-3-yl)acetic acid]", "EC50": 2}, {"smiles": "Cc1nc(C)c([C@H](OC(C)(C)C)C(=O)O)c(N2CCC(C)(C)CC2)c1-c1ccc2c(c1)CCN(c1nc3ccc(Cl)cc3s1)C2", "note": "[Compound 4, (S)-2-(tert-butoxy)-2-(5-(2-(6-chlorobenzo[d]thiazol-2-yl)-1,2,3,4-tetrahydroisoquinolin-6-yl)-4-(4,4-dimethylpiperidin-1-yl)-2,6-dimethylpyridin-3-yl)acetic acid]", "EC50": 19}, {"smiles": "Cc1nc(C)c([C@H](OC(C)(C)C)C(=O)O)c(N2CCC(C)(C)CC2)c1-c1ccc2c(c1)CCN(c1nc3ncc(C(F)(F)F)cc3s1)C2", "note": "[Compound 1, (S)-2-(tert-butoxy)-2-(4-(4,4-dimethylpiperidin-1-yl)-2,6-dimethyl-5-(2-(6-(trifluoromethyl)thiazolo[4,5-b]pyridin-2-yl)-1,2,3,4-tetrahydroisoquinolin-6-yl)pyridin-3-yl)acetic acid]", "EC50": 3}, {"smiles": "Cc1nc(C)c([C@H](OC(C)(C)C)C(=O)O)c(N2CCC(C)(C)CC2)c1-c1ccc2c(c1)CCN(c1nc3c(Cl)cccc3s1)C2", "note": "[Compound 7, (S)-2-(tert-butoxy)-2-(5-(2-(4-chlorobenzo[d]thiazol-2-yl)-1,2,3,4-tetrahydroisoquinolin-6-yl)-4-(4,4-dimethylpiperidin-1-yl)-2,6-dimethylpyridin-3-yl)acetic acid]", "EC50": 2}, {"smiles": "Cc1nc(C)c([C@H](OC(C)(C)C)C(=O)O)c(N2CCC(C)(C)CC2)c1-c1ccc2c(c1)CCN(c1ncnc3[nH]ccc13)C2", "note": "[Compound 20, (S)-2-(5-(2-(7H-pyrrolo[2,3-d]pyrimidin-4-yl)-1,2,3,4-tetrahydroisoquinolin-6-yl)-4-(4,4-dimethylpiperidin-1-yl)-2,6-dimethylpyridin-3-yl)-2-(tert-butoxy)acetic acid]", "EC50": 3}, {"smiles": "Cc1nc(C)c([C@H](OC(C)(C)C)C(=O)O)c(N2CCC(C)(C)CC2)c1-c1ccc2c(c1)CCN(c1nc(O)c3[nH]cnc3n1)C2", "note": "[Compound 21, (S)-2-(tert-butoxy)-2-(4-(4,4-dimethylpiperidin-1-yl)-5-(2-(6-hydroxy-7H-purin-2-yl)-1,2,3,4-tetrahydroisoquinolin-6-yl)-2,6-dimethylpyridin-3-yl)acetic acid]", "EC50": 5990}, {"smiles": "COc1ccc2nc(N3CCc4cc(-c5c(C)nc(C)c([C@H](OC(C)(C)C)C(=O)O)c5N5CCC(C)(C)CC5)ccc4C3)sc2c1", "note": "[Compound 12, (S)-2-(tert-butoxy)-2-(4-(4,4-dimethylpiperidin-1-yl)-5-(2-(6-methoxybenzo[d]thiazol-2-yl)-1,2,3,4-tetrahydroisoquinolin-6-yl)-2,6-dimethylpyridin-3-yl)acetic acid]", "EC50": 4}, {"smiles": "Cc1nc(C)c([C@H](OC(C)(C)C)C(=O)O)c(N2CCC(C)(C)CC2)c1-c1ccc2c(c1)CCN(c1nccc3[nH]cnc13)C2", "note": "[Compound 24, (S)-2-(5-(2-(1H-imidazo[4,5-c]pyridin-4-yl)-1,2,3,4-tetrahydroisoquinolin-6-yl)-4-(4,4-dimethylpiperidin-1-yl)-2,6-dimethylpyridin-3-yl)-2-(tert-butoxy)acetic acid]", "EC50": 56}, {"smiles": "Cc1nc(C)c([C@H](OC(C)(C)C)C(=O)O)c(N2CCC(C)(C)CC2)c1-c1ccc2c(c1)CCN(c1nc3cccnc3s1)C2", "note": "[Compound 2, (S)-2-(tert-butoxy)-2-(4-(4,4-dimethylpiperidin-1-yl)-2,6-dimethyl-5-(2-(thiazolo[5,4-b]pyridin-2-yl)-1,2,3,4-tetrahydroisoquinolin-6-yl)pyridin-3-yl)acetic acid]", "EC50": 1}, {"smiles": "Cc1nc(C)c([C@H](OC(C)(C)C)C(=O)O)c(N2CCC(C)(C)CC2)c1-c1ccc2c(c1)CCN(c1ncnc3cc[nH]c13)C2", "note": "[Compound 22, (S)-2-(5-(2-(5H-pyrrolo[3,2-d]pyrimidin-4-yl)-1,2,3,4-tetrahydroisoquinolin-6-yl)-4-(4,4-dimethylpiperidin-1-yl)-2,6-dimethylpyridin-3-yl)-2-(tert-butoxy)acetic acid]", "EC50": 286}, {"smiles": "Cc1nc(C)c([C@H](OC(C)(C)C)C(=O)O)c(N2CCC(C)(C)CC2)c1-c1ccc2c(c1)CCN(c1nc3ccccc3n1C)C2", "note": "[Compound 17, (S)-2-(tert-butoxy)-2-(4-(4,4-dimethylpiperidin-1-yl)-2,6-dimethyl-5-(2-(1-methyl-1H-benzo[d]imidazol-2-yl)-1,2,3,4-tetrahydroisoquinolin-6-yl)pyridin-3-yl)acetic acid]", "EC50": 22}, {"smiles": "Cc1nc(C)c([C@H](OC(C)(C)C)C(=O)O)c(N2CCC(C)(C)CC2)c1-c1ccc2c(c1)CCN(c1nc3cnccc3s1)C2", "note": "[Compound 11, (S)-2-(tert-butoxy)-2-(4-(4,4-dimethylpiperidin-1-yl)-2,6-dimethyl-5-(2-(thiazolo[4,5-c]pyridin-2-yl)-1,2,3,4-tetrahydroisoquinolin-6-yl)pyridin-3-yl)acetic acid]", "EC50": 1}, {"smiles": "Cc1nc(C)c([C@H](OC(C)(C)C)C(=O)O)c(N2CCC(C)(C)CC2)c1-c1ccc2c(c1)CCN(c1ncnc3c(C)csc13)C2", "note": "[Compound 15, (S)-2-(tert-butoxy)-2-(4-(4,4-dimethylpiperidin-1-yl)-2,6-dimethyl-5-(2-(7-methylthieno[3,2-d]pyrimidin-4-yl)-1,2,3,4-tetrahydroisoquinolin-6-yl)pyridin-3-yl)acetic acid]", "EC50": 2}, {"smiles": "Cc1nc(C)c([C@H](OC(C)(C)C)C(=O)O)c(N2CCC(C)(C)CC2)c1-c1ccc2c(c1)CCN(c1ncc3cc[nH]c3n1)C2", "note": "[Compound 25, (S)-2-(5-(2-(7H-pyrrolo[2,3-d]pyrimidin-2-yl)-1,2,3,4-tetrahydroisoquinolin-6-yl)-4-(4,4-dimethylpiperidin-1-yl)-2,6-dimethylpyridin-3-yl)-2-(tert-butoxy)acetic acid]", "EC50": 4}]}]}
